The test system of series [1] is adipocytes (mature 3T3-L1). In words: Confocal fluorescence imaging of peptide binding to adipocyte outer membrane. The following applies: 1 μM FITC-labeled peptide, 30 minutes, 37° C. The class given is cell-based. How it is done:
The binding of the candidate peptides to the adipocyte outer membrane was confirmed through fluorescence imaging. Specifically, differentiated 3T3-L1 preadipocytes were treated with 1 μM of the finally selected FITC-labeled candidate peptides in Table 2 dissolved in DMEM for 30 minutes at 37° C. After washing with PBS, cell nuclei were stained using 4′6,-diamidino-2-phenylindole (DAPI). Fluorescence images were taken using a confocal microscope (green fluorescence (FITC)=488 nm, blue fluorescence (DAPI)=405 nm).

Series [2] deals with adipocytes (mature 3T3-L1). In words: FACS targeting ability of FITC-labeled peptides in adipocytes. The series is classed as cell-based. The following applies: 37° C.; for targeting ability (FACS): adipocytes (mature 3T3-L1), 1 μM FITC-labeled peptide, 30 minutes. On the procedure:
To conduct cell experiments in adipocytes, preadipocytes were differentiated into adipocytes. Specifically, 3T3-L1 preadipocytes were first seeded in a well plate of a size suitable for the experimental purpose, and then cultured to 80% to 90% confluence. Thereafter, the cells were treated with an adipocyte differentiation induction reagent (insulin 10 μg/ml, dexamethasone 0.4 μg/ml, 3-isobutyl-1-methylxanthine 111 μg/ml) for three days. After washing the adipocyte differentiation induction reagent with phosphate-buffered saline (PBS), the cells were treated with Dulbecco's modified eagle medium (DMEM) containing insulin (10 μg/ml) every two days, and differentiation was induced for up to 14 days to generate adipocytes. Thereafter, on day 14 of the adipocyte differentiation induction, the cells were fixed with 4% paraformaldehyde and then treated with the Oil red O staining solution for two hours. In addition, the staining solution accumulated inside the cells was eluted with isopropanol, and a microplate reader was used to verify whether fatty acids were accumulated inside the adipocytes at a wavelength of 510 nm to finally confirm the differentiation.
The targeting effect of the above-described candidate peptides was quantitatively verified in actual adipocytes and preadipocytes. Specifically, differentiated 3T3-L1 preadipocytes were treated at 37° C. for 30 minutes with 1 μM of the final FITC-labeled candidate peptides dissolved in DMEM.
After washing with PBS, cells were detached from the well plate using a trypsin-ethlyenediaminetetraacetic acid (EDTA) (0.5%) solution and centrifuged at 1100 rpm for three minutes to obtain sedimented cells. […]
The finally selected candidate peptide (adipose tissue homing peptide: AHP) (SEQ ID NO: 14: KGRRAKD) was quantitatively compared with another adipose tissue targeting sequence (adipose targeting sequence: ATS) (SEQ ID NO: 22: KGGRAKD) in adipocytes. […]

The nature of series [3]: Pharmacokinetics: blood residual concentration after intraperitoneal injection. The series is classed as in vivo, C57BL/6J. The settings on record: 13.5 mg/kg intraperitoneal. How it is done:
The pharmacokinetic indices were calculated by measuring the blood residual concentrations of GL derivatives. Specifically, GL and GL-PEG-AHP were injected intraperitoneally in an amount of 13.5 mg/kg into animals (C57BL/6J, 6 weeks old, 5 per cage). At each time point (0, 20, 30, 120, 240, and 480 minutes) following the intraperitoneal injection, the animals were sacrificed, and 300 μl of blood samples were obtained through the abdominal vein. The obtained blood samples were placed in EDTA tubes and centrifuged at 824×g for 30 minutes at 4° C. 50 μl of the supernatant was mixed with 100 μl of methanol, and the resulting mixture was vortexed for 10 minutes. Thereafter, centrifugation was performed again at 10,000×g for 10 minutes. 100 μl of the supernatant was mixed with 900 μl of the mobile phase, and the resulting mixture was filtered through a 0.45 μm syringe filter, and HPLC was performed (HPLC column: C8 column; mobile phase=methanol:acetonitrile:water:acetic acid=55:23.7:19.2:0.68; flow rate: 1 ml/min; injection volume: 20 μl) to measure the blood residual concentration of the drug over time. Detection was performed through UV at 245 nm.

Series [4] has as its system ABCA1. Description: ABCA1 cell membrane expression in adipocytes treated with LXR inhibitor GSK2033. The class given is cell-based. The settings on record: adipocytes treated with GL derivatives. How it is done:
It was confirmed through fluorescence images whether the cell membrane expression level of ABCA1 by GL derivatives is reduced in adipocytes by GSK2033, an LXR inhibitor. […] Specifically, 4×10^4 adipocytes were seeded in a 24-well plate and treated with each group (control, GL, PEG, AHP, GL-PEG, and GL-PEG-AHP) for 24 hours on day 14 of adipocyte differentiation. The cells were fixed using 4% PFA. After washing with PBS, the cells were incubated with 10% goat serum and 0.02% Tween-20 for 30 minutes at room temperature. The cells were treated with the ABCA1 antibody (Host: rabbit, 1:300) in PBST at room temperature for two hours. After washing with PBST, the cells were treated with an FITC-labeled secondary antibody (goat-anti-rabbit, 1:500) at room temperature for one hour. After washing with PBS, the cells were treated with DAPI for one minute at room temperature, and then fluorescence images were obtained.

Series [5] deals with obese adipocytes (FFA-treated mature 3T3-L1 cells). In words: Anti-hypertrophic effect in obese adipocytes (Oil Red O). The class given is cell-based. How it is done:
To induce obesity in adipocytes at the cell experiment level, cells were treated with saturated fatty acids, and the process of inducing obese adipocytes and performing the experiment at the cell experiment level are shown in FIG. 16. Specifically, a saturated fatty acid (free fatty-acid) (FFA, palmitic acid) was dissolved in a 2% w/v bovine serum albumin (BSA) and 0.5% ethanol DMEM solution to a concentration of 500 μM. After treating with FFA for three days, the cells were washed, subjected to an Oil Red O staining solution process, and then the amount of accumulated fatty acids was measured through the absorbance at 510 nm. The results are shown in FIG. 17, and it was confirmed even through qualitative observation that the size of single fat droplets was very different. […]
The anti-hypertrophy effect of GL derivatives in obesity-induced adipocytes according to the concentration was confirmed at the cell experiment level. […] The amount of fatty acids accumulated inside the cells was measured through the Oil Red O staining process on day 18 of differentiation. […]
It was confirmed whether the anti-hypertrophic effect according to the expected mechanism of GL derivatives differed depending on the fatty acid treatment method. […] On day 18 of differentiation, the amount of fatty acids accumulated inside the cells was measured through the Oil Red O staining process.

Series [6] concerns the target T1, prohibitin (PHB) on the surface of adipocytes (mature 3T3-L1) (UniProt P67778 2-272, limits assumed).
T1 construct: whole, on cells
T1 sequence (looked up): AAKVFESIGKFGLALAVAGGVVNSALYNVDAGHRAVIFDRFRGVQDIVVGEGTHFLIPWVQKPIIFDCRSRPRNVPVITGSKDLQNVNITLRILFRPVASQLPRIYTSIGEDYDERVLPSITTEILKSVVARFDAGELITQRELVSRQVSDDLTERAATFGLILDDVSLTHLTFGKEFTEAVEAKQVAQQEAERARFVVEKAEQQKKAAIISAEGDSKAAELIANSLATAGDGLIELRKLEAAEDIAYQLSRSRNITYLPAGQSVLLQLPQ
In words: FACS of FITC-labeled peptide on mature 3T3-L1 adipocytes, 30 min at 37 °C.

Here are results for six molecules from patent publication US20260184750A1, “CONJUGATE COMPRISING PEPTIDE OF NOVEL SEQUENCE AND GLYCYRRHIZIN, AND PHARMACEUTICAL COMPOSITION FOR PREVENTING OR TREATING OBESITY COMPRISING SAME” (IUCF-HYU (INDUSTRY-UNIVERSITY COOPERATION FOUNDATION …, priority 2022, published 2026).

Where two headings read alike, the source gives them in different places. No end group written: not given here.

As for “7mer 001: adipose tissue homing peptide, SEQ ID NO: 14: KGRRAKD; conjugated form SEQ ID NO: 1: GKGRRAKDC”, the “adipocyte targeting ability (confocal fluorescence images)” value in series [1] is recorded as “best adipocyte targeting ability”. In addition, the “adipocyte targeting effect compared with ATS (FACS)” value in series [2] (1 μM FITC-labeled AHP and ATS, 30 min) was “not inferior in efficacy to ATS”. Also, the “targeting ability (FACS)” value in series [2] is reported as “most effective targeting ability”.

Broadly, the AUC(0-t) is exposure summed from dosing to a finite time, without extrapolation to infinity. A high value points to more exposure. Broadly, the half-life is the time needed for the level to fall by half in the phase considered. Lower therefore signals fast loss. What is called Cmax is the highest concentration seen after dosing. By Tmax is commonly meant the time at which the peak concentration occurs. With `CC1(C)[C@@H](O[C@H]2O[C@H](C(=O)O)[C@@H](O)[C@H](O)[C@H]2O[C@@H]2O[C@H](C(=O)O)[C@@H](O)[C@H](O)[C@H]2O)CC[C@]2(C)[C@H]3C(=O)C=C4[C@@H]5C[C@@](C)(C(=O)O)CC[C@]5(C)CC[C@@]4(C)[C@]3(C)CC[C@@H]12` [GL, glycyrrhizin], in series [3] (C57BL/6J, mouse, plasma, ip), the AUC(0-t) is 114 µg·h/mL and the half-life is 3.3 h. Also, the Cmax in series [3] (C57BL/6J, mouse, plasma, ip, read-out: Cmax) is 43800 ng/mL. Further, in series [3] (C57BL/6J, mouse, plasma, ip, read-out: Tmax (converted)), the Tmax is 0.333 h.

As to `Cc1cc(C)c(S(=O)(=O)N(Cc2ccc(-c3cccc(S(C)(=O)=O)c3)cc2)Cc2ccc(C(F)(F)F)o2)c(C)c1` [GSK2033], the “expression of ABCA1 in GL derivative groups by GSK2033 treatment” value in series [4] is “suppressed”.

Regarding “GL-PEG-AHP: adipose tissue-targeting glycyrrhizin conjugate: GL amide-bonded to thiol-PEG-amine, disulfide-bonded to AHP (SEQ ID NO: 1: GKGRRAKDC) (also: glycyrrhizin-PEG conjugate, Cys9 disulfide-linked to thiol-PEG-GL)”, the “difference in drug efficacy between pretreatment and co-treatment” value in series [5] (anti-hypertrophic effect, Oil Red O, day 18 of differentiation) was “greatest efficacy difference”. Also, in series [5] (drug pretreatment, 25, 50, 100, 200, 400 μM, ranking between groups), the anti-hypertrophic effect result is given as “most effective anti-hypertrophic effect”. Moreover, in series [3], the Cmax was 75200 ng/mL, the T1/2 came to 3.45 h and the Tmax was 0.333 h.

Turning to “GRRAK: 5mer candidate peptide, SEQ ID NO: 6”, the “targeting ability (FACS)” value in series [2] was “did not have a significant targeting ability”.

B1: 5mer candidate peptide GRRAK, FITC-labeled (peptide)
peptide: GRRAK
modifications: also: FITC-labeled, position not given here
notes: Described as a 'working region'; also called working region GRRAK
As to B1, the binding result in series [6] is “no binding (tested: 1 µM)”.
